The text below walks through data of patent US20240158418A1 (C4 Therapeutics, Inc., priority 2021, published 2024).

In experiment [1] the test system is BaF3 cells expressing EGFR L858R-L792H. In words: Ba/F3 EGFR cell viability (CellTiter-Glo), L858R-L792H. Particulars: Mus musculus, read-out: CTGlo (GI50). In kind it is cell-based. The text has this: (§1) RPMI 1640 media, cell culture flasks, and 384-well microplates were purchased from VWR (Radnor, PA, USA). Fetal bovine serum (FBS) was purchased from Life Technologies (Carlsbad, CA, USA) and CellTiter-Glo® was purchased from Promega (Madison, WI, USA). The Ba/F3 parental cell line was purchased from CrownBio (Santa Clara, CA). BaF3 cell lines ectopically expressing the EGFR mutations L858R, L858R-T790M, L858R-C797S, and L858R-T790M-C797S were purchased from CrownBio and EGFR mutations L858R-L718Q, L858R-T790M-L718Q, L858R-L792H, and L858R-T790M-L792H, were purchased from Signosis (Santa Clara, CA).
(§2) Cell viability was assessed based on the quantification of ATP using the CellTiter-Glo® assay (Promega, Madison, WI, USA). To determine the effect of compounds on cell viability, all Ba/F3 cell lines were plated at a cell density of 2000 cells/well in 384-well plates using RPMI 1640+10% FBS and treated with compounds of interest using a 10-point half-log dilution series in duplicate for 72 hours, with the highest dose set at […]. CellTiter-Glo® reagent was then added and luminescence signals were measured using an EnVision™ Multimode plate reader (Perkin Elmer, Santa Clara, CA). For data normalization, cells untreated with the test compounds at Time=72 hours were set to 100% (equivalent to maximal cell growth after 72 hours); cells untreated with the test compounds at Time=0 hours were set to 0% (equivalent to cytostasis); and media-only wells were set to −100% (equivalent to complete cytotoxicity). % Viability was determined by normalizing the signal with positive and DMSO treated negative controls on the same microtiter plate. The half-maximal inhibition of cell growth (GI50) is computed from where the fitted curve crosses 50% while the half-maximal lethal dose (LD50) is computed from where the fitted curve crosses −50%.
A general note: ATP-based viability assays read luminescence as a measure of living cells.

A further experiment concerns the target T1, pY1068 EGFR L858R (Homo sapiens, UniProt P00533, L858R).
T1 construct: NCI-H3255 (harboring EGFR heterozygous L858R mutation); host or cells: NCI-H3255
In words: Phospho-EGFR (pY1068) inhibition HTRF, NCI-H3255. In kind it is cell-based. Particulars: 6 hours, read-out: pEGFR IC50. Summed up: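 6 h compound exposure, 37 °C/5% CO2, RPMI no-phenol red + 10% FBS. Dose range: 10 μM top, 11 pts, ½-log, duplicate. Readout HTRF FRET: pY1068 EGFR → IC50; total EGFR (pan-EGFR, A431) → DC50. No-compound cells = negative ctrl, no-cell wells = positive ctrl.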
For orientation: In TR-FRET formats the signal depends on donor and acceptor labels being close together.

A further experiment addresses EGFR L858R (Homo sapiens, UniProt P00533, L858R). In words: EGFR degradation, Total EGFR (L858R-specific) HTRF, NCI-H3255. In kind it is cell-based. More on the design: NCI-H3255 (harboring EGFR heterozygous L858R mutation); host or cells: NCI-H3255. Particulars: 6 hours. Summed up:
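Cells in RPMI 1640 + 10% FBS treated 6 h at 37°C with compound, 11-point half-log titration from 10 μM top, in duplicate. pY1068 and total EGFR read by HTRF (pan-EGFR antibody for wild-type A431; L858R-specific for mutants); IC50 for phospho inhibition, DC50 for 50% degradation.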

For another experiment, the target named is T2, pY1068 EGFR WT (Homo sapiens, UniProt P00533).
T2 construct: A431 (harboring EGFR wildtype) was purchased from ATCC; host or cells: A431
The experiment can be described thus: Phospho-EGFR (pY1068) inhibition HTRF, A431. In kind it is cell-based. Particulars: A431 (wild-type), 6 hours; read-out: pEGFR IC50. The text has this: (§3) NCI-H1975 (harboring EGFR heterozygous L858R-T790M mutations) and NCI-H3255 (harboring EGFR heterozygous L858R mutation) were purchased from ATCC and NCI, respectively. NCI-H1975+CS (harboring EGFR heterozygous L858R-T790M-C797S mutations) was generated using CRISPR technology to introduce the additional C797S mutation by Horizon Discovery. A431 (harboring EGFR wildtype) was purchased from ATCC. RPMI 1640 no-phenol red medium and fetal bovine serum (FBS) were purchased from Gibco (Grand Island, NY, USA). Cell culture flasks and 384-well microplates were acquired from VWR (Radnor, PA, USA). Phosphorylated (pY1068) EGFR and Total EGFR (using L858R-specific detection antibody and pan-EGFR antibody for EGFR mutant cell lines and EGFR wild-type cell lines, respectively) HTRF assay kits were purchased from Cisbio (Bedford, MA, USA).
Degradation of EGFR protein containing L858R mutation or wild-type was determined based on quantification of FRET signal using a Total EGFR (L858R-specific or pan-EGFR detecting) HTRF assay kit. Phospho-EGFR (pEGFR) inhibition was determined based on quantification of FRET signal using a pY1068 EGFR HTRF assay kit. In separate assay plates, test compounds were added to the 384-well plate from a top concentration of 10 μM with 11 points, half log titration in duplicates. […] FRET signal was acquired on EnVision™ Multilabel Reader (PerkinElmer, Santa Clara, CA, USA). […]

A further experiment concerns the target T3, EGFR WT (Homo sapiens, UniProt P00533).
T3 construct: A431 (harboring EGFR wildtype) was purchased from ATCC; host or cells: A431
In words: EGFR degradation, Total EGFR (pan-EGFR) HTRF, A431. In kind it is cell-based. Particulars: A431 (wild-type), 6 hours; read-out: tEGFR DC50.
From the text: as §3
Degradation of EGFR protein containing L858R mutation or wild-type was determined based on quantification of FRET signal using a Total EGFR (L858R-specific or pan-EGFR detecting) HTRF assay kit. Phospho-EGFR (pEGFR) inhibition was determined based on quantification of FRET signal using a pY1068 EGFR HTRF assay kit. In separate assay plates, test compounds were added to the 384-well plate from a top concentration of 10 μM with 11 points, half log titration in duplicates. For each assay, 12.5 uL of cells suspended in assay media (RPMI 1640 no-phenol red medium+10% FBS) at cell densities indicated for each cell line in Table 8 below were dispensed using a multi-channel pipette to 384-well low volume white HTRF microplates containing a duplicate concentration range of test compounds and DMSO controls. The plates were kept at 37° C. with 5% CO2 for 6 hours and then incubated with either phospho EGFR or Total EGFR HTRF detection antibodies according to the cell line and EGFR mutant being assayed. Cells treated in the absence of the test compound were the negative control. Positive control was set by wells containing all reagents but no cells. FRET signal was acquired on EnVision™ Multilabel Reader (PerkinElmer, Santa Clara, CA, USA). Compound concentration that achieves 50% degradation and inhibition was reported as DC50 and IC50, respectively.

For experiment [2], the system named is BaF3 cells expressing EGFR L858R-T790M-C797S. The experiment can be described thus: Ba/F3 EGFR cell viability (CellTiter-Glo), L858R-T790M-C797S. In kind it is cell-based. Particulars: Mus musculus, read-out: CTGlo (GI50).
Experiment [3] relates to BaF3 cells expressing EGFR L858R-C797S. In words: Ba/F3 EGFR cell viability (CellTiter-Glo), L858R-C797S. In kind it is cell-based. Particulars: Mus musculus, read-out: CTGlo (GI50).
From the text: as §1, §2

Experiment [4] relates to BaF3 cells expressing EGFR L858R-T790M-L792H. In words: Ba/F3 EGFR cell viability (CellTiter-Glo), L858R-T790M-L792H. In kind it is cell-based. Particulars: Mus musculus, read-out: CTGlo (GI50).
From the text: as §1, §2

For experiment [5], the system named is engineered triple mutant EGFR (L858R-T790M-C797S) BaF3 tumors. The experiment can be described thus: BaF3 triple mutant EGFR allograft efficacy. Particulars: for efficacy on BaF3 tumor volume: Compound 1 or 2 at 20, 50, 100 mg/kg/day PO BID, osimertinib 25 mg/kg/day PO QD, 14 days. In kind it is in vivo, female BALB/c nude mice. On the procedure:
Each Compound was administered BID (twice a day) orally (PO).
Tumor volume was measured twice weekly in two dimensions using calipers, and volume (mm^3) was calculated using the formula: V=0.5 a×b^2 where a and b are the long and short diameters of the tumor in mm, respectively. […] Treatment began on Day 0 with established subcutaneous BaF3 tumors with a mean tumor volume (MTV) of 108 mm^3.
Body weight and MTV were measured on a 2× weekly schedule. Statistical analysis was performed using a one-way ANOVA followed by Dunnett's multiple comparison test. Data are expressed as MTV±SEM.

[6] abbreviates: H3255 (L858R), read-out: tEGFR DC50.
[7] abbreviates: Table 9A, NCI-H3255 cells, Total EGFR HTRF, read-out: H3255 EGFR DC50.

Read-outs that look alike come from different tables or passages of the source.

EGFR L858R, sequence (P00533 25-1210 L858R): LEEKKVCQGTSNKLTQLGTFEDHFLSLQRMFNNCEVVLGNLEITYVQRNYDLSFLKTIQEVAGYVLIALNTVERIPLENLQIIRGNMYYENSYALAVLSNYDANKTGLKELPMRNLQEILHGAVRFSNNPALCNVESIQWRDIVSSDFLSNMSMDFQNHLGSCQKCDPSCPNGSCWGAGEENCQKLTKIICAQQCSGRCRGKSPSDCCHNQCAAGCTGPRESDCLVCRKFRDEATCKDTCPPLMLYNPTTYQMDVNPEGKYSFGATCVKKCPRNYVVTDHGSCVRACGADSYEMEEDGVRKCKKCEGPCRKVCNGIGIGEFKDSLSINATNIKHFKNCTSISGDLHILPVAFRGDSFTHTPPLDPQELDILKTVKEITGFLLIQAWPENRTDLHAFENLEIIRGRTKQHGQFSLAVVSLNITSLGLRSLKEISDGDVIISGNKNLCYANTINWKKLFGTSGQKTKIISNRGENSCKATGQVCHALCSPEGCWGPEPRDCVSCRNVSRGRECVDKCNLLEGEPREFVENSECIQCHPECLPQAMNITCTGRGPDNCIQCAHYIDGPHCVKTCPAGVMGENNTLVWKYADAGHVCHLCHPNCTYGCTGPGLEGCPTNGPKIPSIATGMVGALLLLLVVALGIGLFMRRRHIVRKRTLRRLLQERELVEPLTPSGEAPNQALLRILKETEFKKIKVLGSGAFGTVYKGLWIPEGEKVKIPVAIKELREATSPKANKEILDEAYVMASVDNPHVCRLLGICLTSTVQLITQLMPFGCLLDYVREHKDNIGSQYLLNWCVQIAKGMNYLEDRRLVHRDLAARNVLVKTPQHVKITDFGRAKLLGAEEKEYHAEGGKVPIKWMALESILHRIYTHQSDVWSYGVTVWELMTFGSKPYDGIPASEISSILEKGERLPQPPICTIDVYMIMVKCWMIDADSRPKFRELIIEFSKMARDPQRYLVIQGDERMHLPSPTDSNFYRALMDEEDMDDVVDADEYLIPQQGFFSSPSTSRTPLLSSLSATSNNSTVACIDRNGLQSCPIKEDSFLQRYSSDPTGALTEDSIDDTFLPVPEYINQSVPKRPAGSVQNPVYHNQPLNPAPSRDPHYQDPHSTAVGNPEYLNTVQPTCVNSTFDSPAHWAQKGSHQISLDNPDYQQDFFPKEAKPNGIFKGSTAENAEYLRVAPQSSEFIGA
T1 sequence (P00533 25-1210 L858R): as above
T2 sequence (P00533 25-1210): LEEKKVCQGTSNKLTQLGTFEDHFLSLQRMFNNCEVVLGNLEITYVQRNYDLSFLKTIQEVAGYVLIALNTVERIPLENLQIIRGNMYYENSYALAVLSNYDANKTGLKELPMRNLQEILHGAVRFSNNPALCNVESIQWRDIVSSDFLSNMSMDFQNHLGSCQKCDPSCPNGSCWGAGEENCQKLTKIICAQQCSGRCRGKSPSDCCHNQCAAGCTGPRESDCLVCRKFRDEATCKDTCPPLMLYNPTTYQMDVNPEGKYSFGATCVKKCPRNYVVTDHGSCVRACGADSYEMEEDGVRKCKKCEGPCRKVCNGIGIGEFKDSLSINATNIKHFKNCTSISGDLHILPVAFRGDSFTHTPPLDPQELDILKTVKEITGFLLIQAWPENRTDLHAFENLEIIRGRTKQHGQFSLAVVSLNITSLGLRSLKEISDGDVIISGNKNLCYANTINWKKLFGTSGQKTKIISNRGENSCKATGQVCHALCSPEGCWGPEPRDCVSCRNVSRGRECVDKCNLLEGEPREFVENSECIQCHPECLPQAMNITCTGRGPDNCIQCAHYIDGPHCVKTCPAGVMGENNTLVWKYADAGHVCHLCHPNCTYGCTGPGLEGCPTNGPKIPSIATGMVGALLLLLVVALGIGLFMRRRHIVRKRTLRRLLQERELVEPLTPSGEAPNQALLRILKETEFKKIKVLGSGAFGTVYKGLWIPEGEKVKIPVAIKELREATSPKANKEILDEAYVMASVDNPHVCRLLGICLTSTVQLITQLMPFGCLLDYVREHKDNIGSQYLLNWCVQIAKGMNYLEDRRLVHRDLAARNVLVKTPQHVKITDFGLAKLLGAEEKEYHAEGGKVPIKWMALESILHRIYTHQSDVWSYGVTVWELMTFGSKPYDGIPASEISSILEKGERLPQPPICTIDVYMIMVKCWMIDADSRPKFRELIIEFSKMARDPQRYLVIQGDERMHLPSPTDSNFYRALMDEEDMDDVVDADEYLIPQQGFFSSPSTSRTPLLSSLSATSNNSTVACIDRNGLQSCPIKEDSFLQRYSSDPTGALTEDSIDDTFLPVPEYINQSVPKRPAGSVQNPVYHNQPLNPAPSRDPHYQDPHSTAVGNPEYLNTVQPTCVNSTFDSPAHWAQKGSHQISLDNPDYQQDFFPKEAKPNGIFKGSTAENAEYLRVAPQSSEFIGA
T3 sequence (P00533 25-1210): as above

`O=C1CC[C@H](Nc2ccc(N3CCC(O)(CC(=O)N4CC5(C4)CN(c4ccc(-c6cc(F)c7c(c6)C(=O)N(C(C(=O)Nc6nccs6)c6ncn8c6CCC8)C7)cc4)C5)CC3)c(F)c2)C(=O)N1` (stereo partly drawn) [Compound 1, 2-(6,7-dihydro-5H-pyrrolo[1,2-c]imidazol-1-yl)-2-[6-[4-[2-[2-[1-[4-[[(3S)-2,6-dioxo-3-piperidyl]amino]-2-fluoro-phenyl]-4-hydroxy-4-piperidyl]acetyl]-2,6-diazaspiro[3.3]heptan-6-yl]phenyl]-4-fluoro-1-oxo-isoindolin-2-yl]-N-thiazol-2-yl-acetamide]: the GI50 in experiment [1] was 9 nM; in experiment [2] it was 7 nM; in experiment [3], 5 nM; in [4], 21 nM. In addition, the IC50 is 5 nM at pY1068 EGFR L858R and greater than 10 µM on pY1068 EGFR WT. Moreover, the values for the 50% degradation concentration (DC50) on EGFR L858R (setting [6]), on EGFR L858R (setting [7]) and at EGFR WT were 5 nM, less than 50 nM and greater than 10 µM, respectively. Also, the tumor regression in experiment [5] (BaF3 EGFR-L858R-T790M-C797S allograft mouse model, oral dosing) is 60%. The “efficacy on BaF3 tumor volume” value in [5] was “reduced tumor volume”.

With `Cn1nc(N2CCC(=O)NC2=O)c2ccc([C@H]3CCN(CC(=O)N4CC5(C4)CN(c4ccc(-c6cc(F)c7c(c6)C(=O)N(C(C(=O)Nc6nccs6)c6ncn8c6CCC8)C7)cc4)C5)CC3(F)F)cc21` (stereo partly drawn) [Compound 2, 2-(6,7-dihydro-5H-pyrrolo[1,2-c]imidazol-1-yl)-2-[6-[4-[2-[2-[(4R)-4-[3-(2,4-dioxohexahydropyrimidin-1-yl)-1-methyl-indazol-6-yl]-3,3-difluoro-1-piperidyl]acetyl]-2,6-diazaspiro[3.3]heptan-6-yl]phenyl]-4-fluoro-1-oxo-isoindolin-2-yl]-N-thiazol-2-yl-acetamide], the GI50 is 4 nM in experiment [1], 5 nM in experiment [2], 3 nM in [3] and 9 nM in [4]. Moreover, the IC50 is 8 nM at pY1068 EGFR L858R and greater than 10 µM at pY1068 EGFR WT. Also, the DC50 is 6 nM at EGFR L858R (setting [6]), less than 50 nM on EGFR L858R (setting [7]) and greater than 10 µM on EGFR WT. Besides, in experiment [5], the “efficacy on BaF3 tumor volume” value is “reduced tumor volume”.

Usually GI50 stands for the concentration giving 50% growth inhibition. As a reminder, the IC50 is the concentration that inhibits the measured activity by half. Usually DC50 stands for the midpoint of the concentration-degradation curve.
